From US7935673B2, “Polyphenol glycoside isolated from acerola” (Nichirei Biosciences, Inc., priority 2004, dated 2011)

What was measured:
[1] = Antioxidative activity measurement by DPPH radical scavenging; type: biochemical; conditions: for DPPH radical 50% scavenging concentration: 30° C., 30 minutes, absorbance at 517 nm; for radical scavenging activity compared with α-tocopherol: DPPH reagent, result in words
Description: Antioxidative activity was evaluated with the use of a stable-radical diphenyl-p-picrylhydradil (DPPH)/ethanol solution. 400 μl of a sample/methanol solution was mixed with 1600 μl of 250 mM acetate buffer (pH=5.5) and 1200 μl of ethanol, at a different concentration, followed by preincubation at 30° C. for 5 minutes. Then, 800 μl of a 500 μM DPPH/ethanol solution was added to each resulting solution, followed by mixing. Each resultant was allowed to stand at 30° C. for 30 minutes, followed by measurement of absorbance at 517 nm. α-tocopherol was also subjected to the same operation. The obtained solution was thus designated as a positive control. A blank solution used was prepared by the same operation with the use of methanol instead of a sample solution. Based on absorbances measured, radical scavenging rates were calculated based on the following equation. Scavenging rate(%)=(1−[Absorbance of a sample]/[Absorbance of a blank])×100 [Equation 1]
The concentration of a sample solution was changed stepwise for the measurement of the aforementioned scavenging rate. As a result, the concentration of a sample solution at which the DPPH radical scavenging rate was 50% was obtained so as to be designated as the DPPH radical 50% scavenging concentration. The lower such value, the higher the radical scavenging capacity.

[2] = test system: α-glucosidase (yeast-derived reagent); assay: α-Glucosidase inhibitory activity (maltose substrate); type: biochemical; conditions: for IC50: yeast-derived α-glucosidase, maltose substrate, 37° C., 60 minutes, read-out: 50% α-glucosidase inhibition concentration
Description: A yeast-derived reagent (Wako Pure Chemical) was used as an α-glucosidase. The reagent was dissolved in 10 mM phosphate buffer (pH 7.0) containing 0.2% bovine serum albumin.
In the experiment, 0.25 mL of 100 mM phosphate buffer, 0.25 mL of each sample solution at a different concentration, and 0.125 mL of a maltose aqueous solution serving as a substrate at a concentration of 10 mg/mL were mixed, followed by heating at 37° C. for 5 minutes. Then, 0.125 mL of an α-glucosidase solution was added thereto, followed by enzyme treatment at 37° C. for 60 minutes. As a reaction termination solution, 0.5 mL of a 0.2 M sodium carbonate solution was added to each resultant, followed by mixing. The glucose concentration of each reaction solution was measured using Glucose CII-Test Wako (Wako Pure Chemical). An inhibition rate (%) was calculated based on a proportion of the glucose concentration of a solution to which a sample had been added to the glucose concentration of a blank solution to which no sample had been added. Then, the concentration of each sample at which 50% enzyme activity was inhibited was calculated based on such inhibition rate derived from the concentration of the sample, followed by comparison.

[3] = result in words; cited from earlier work

SMILES: OCC1OC2O[C@@H]3[C@@H](c4ccc(O)c(O)c4)Oc4cc(O)cc(O)c4[C@@H]3OC2C(O)C1O (stereo in doubt) [Product of the present invention]
- DPPH radical 50% scavenging concentration [1]: 0.080 mg/mL
- radical scavenging activity compared with α-tocopherol [1]: comparable to or exceeding that of α-tocopherol
- radical scavenging activity compared with α-tocopherol ([1]; listed as novel polyphenol glycoside of the present invention): almost comparable to that of α-tocopherol
- glucosidase inhibitory activity compared with isoquercitrin ([2]; result in words): several times stronger than that of isoquercitrin
- glucosidase inhibitory activity compared with taxifolin ([2]; result in words): several times stronger
- glucosidase inhibitory activity compared with taxifolin ([2]; result in words, listed as polyphenol glycoside of the present invention): several times stronger than that of taxifolin
- IC50 [2]: 164 µM

SMILES: O=c1c(OC2OC(CO)C(O)C(O)C2O)c(-c2ccc(O)c(O)c2)oc2cc(O)cc(O)c12 (centres unmarked) [Isoquercitrin, quercetin-3-glucoside, reference compound]
- IC50 [2]: 727 µM

SMILES: O=C1c2c(O)cc(O)cc2O[C@H](c2ccc(O)c(O)c2)[C@H]1O [Taxifolin, taxifolin, reference compound]
- IC50 [2]: 892 µM

SMILES: Cc1c(C)c2c(c(C)c1O)CC[C@@](C)(CCC[C@H](C)CCC[C@H](C)CCCC(C)C)O2 [α-tocopherol, reference compound]
- solubility in water [3]: insoluble in water
- DPPH radical 50% scavenging concentration [1]: 0.127 mg/mL
